In data set [1] the target is T1, monoamine oxidase-B (MAO-B) (Rattus norvegicus, UniProt P19643).
T1 construct: in cellular extracts obtained from cultures of neonatal rat striatal astroglial cells; endogenous in cells; host or cells: cultured neonatal rat striatal astroglial cells (supernatant of sonicated lysate)
T1 sequence (P19643 1-520): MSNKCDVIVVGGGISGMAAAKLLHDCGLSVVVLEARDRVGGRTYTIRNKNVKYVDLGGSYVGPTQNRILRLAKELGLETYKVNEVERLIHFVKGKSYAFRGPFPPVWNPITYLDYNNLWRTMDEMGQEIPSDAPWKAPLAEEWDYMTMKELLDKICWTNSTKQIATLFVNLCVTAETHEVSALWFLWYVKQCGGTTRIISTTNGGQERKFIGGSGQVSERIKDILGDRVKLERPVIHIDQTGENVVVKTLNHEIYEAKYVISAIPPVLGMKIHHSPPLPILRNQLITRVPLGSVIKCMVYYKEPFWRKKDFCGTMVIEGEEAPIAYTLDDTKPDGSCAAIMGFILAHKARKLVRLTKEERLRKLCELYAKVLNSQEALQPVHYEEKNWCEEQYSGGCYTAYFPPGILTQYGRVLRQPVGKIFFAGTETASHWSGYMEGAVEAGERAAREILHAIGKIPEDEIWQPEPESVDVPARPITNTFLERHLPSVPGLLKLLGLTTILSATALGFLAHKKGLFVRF
The data set is described as follows: MAO-B activity in astroglial cell extracts in the presence of clorgyline, Amplex Red MAO assay. The class given is biochemical. How it is done:
(§1) Neonatal rat striatal astroglial cells were used as a source for both MAO-A and MAO-B activity (Carlo et al., Brain Res 711, 175-183, 1996). Astroglial cells were cultured as described (Langeveld et al., Neurosci. Lett. 192, 13-16, 1995). Following one week in culture in 5% CO2/95% air and at 37° C., cells were trypsinized and sonicated in ice cold 25 mM Tris-HCl buffer (pH 7.4) containing 1 mM EDTA. Thereafter, the obtained lysates were centrifuged for 5 min at 1 0,000 g and 4° C., and aliquots of the supernatant fractions were taken for determination of MAO activity using the Amplex Red MAO assay kit (Molecular Probes, Leiden, The Netherlands), which is based on the method described by Zhou and Panchuk-Voloshina (Anal. Biochem. 253, 169-174, 1997). Measurements were performed according to the manufacturers instructions. Briefly, prior to addition of the substrate, the samples were incubated for 30 min in a 96 well plate with drugs or solvent (total volume of 50 μl). Thereafter, 50 μl Amplex Red reagent was added containing 2 U/ml horseradisch peroxidase (HRP), p-tyramine HCl (2 mM, substrate for both MAO A and MAO B (Youdim and Finberg, Biochem. Pharmacol., 41, 155-162, 1991) and Amplex red (10 mM). Under these circumstances, via MAO-catalyzed oxidation of tyramine in a HRP-coupled reaction, Amplex red is converted to fluorescent resorufin. To measure MAO activity, the time-dependent increase in resorufin formation was determined at 2 min time intervals for 30 min at room temperature in a fluorescence microplate reader (BMG Labtechnologies GmbH, Germany), using excitation at 544 nm and emission at 595 nm. […] For calculation of results, the data were corrected for background readings (i.e., in the absence of the MAO substrate tyramine), and expressed as the increase in arbitrary fluorescence units/min. Protein content was determined according to the method of Bradford et al., (Anal. Biochem. 72, 248-254, 1976), using BSA as a standard. Statistical comparisons between groups were made using a one-way analysis of variance (ANOVA) followed by a Newman-Keuls post-hoc test. P values <0.01 were considered significant.
(§2) MAO activity and effects of the drugs thereon were determined as detailed above.
(§3) Data are expressed as percentages of respective controls, and are averages of two till five independent experiments performed in triplicate.

Data set [2] relates to total monoamine oxidase (Σ MAO). To be noted: for Σ MAO activity (% inhibition): solvent 0.03% DMSO only, neonatal rat striatal astroglial cell extracts. As for the experimental part:
as §1, §2, §3

Data set [3] addresses T2, monoamine oxidase A (MAO-A) (Rattus norvegicus, UniProt P21396).
T2 sequence (P21396 1-526): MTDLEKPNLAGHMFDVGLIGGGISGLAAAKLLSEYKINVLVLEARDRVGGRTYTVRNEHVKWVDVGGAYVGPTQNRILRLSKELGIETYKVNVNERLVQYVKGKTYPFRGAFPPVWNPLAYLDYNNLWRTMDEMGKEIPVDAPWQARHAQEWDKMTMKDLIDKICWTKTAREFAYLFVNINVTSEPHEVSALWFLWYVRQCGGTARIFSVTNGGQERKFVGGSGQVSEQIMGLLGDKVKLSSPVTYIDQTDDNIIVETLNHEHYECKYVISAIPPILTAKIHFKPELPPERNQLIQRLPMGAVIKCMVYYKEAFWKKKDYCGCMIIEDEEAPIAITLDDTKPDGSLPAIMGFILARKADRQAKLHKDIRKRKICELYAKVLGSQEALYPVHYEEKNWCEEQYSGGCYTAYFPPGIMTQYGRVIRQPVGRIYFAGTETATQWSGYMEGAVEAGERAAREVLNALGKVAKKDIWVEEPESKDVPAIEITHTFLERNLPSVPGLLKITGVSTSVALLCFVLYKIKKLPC
To be noted: upon selective and complete blockade of MAO-B activity with deprenyl. How it is done:
as §1, §2, §3

The next data set relates to MAO-B. The data set is described as follows: MAO-B inhibitory activity measured at CEREP (protocol of Salach). The class given is biochemical. As for the experimental part: MAO-B inhibitory activity of the compounds A1-D6 were measured at CEREP (Paris, France), according to the protocol described by J. L. Salach, Arch. Biochem. Biophys., 192, 128,1979.
MAO-B inhibitory activity of the compounds A1-D6 AS measured at CEREP (Paris, France), according to the protocol described by J. L. Salach, Arch. Biochem. Biophys., 192, 128, 1979.

The mark [4] stands for this setting: read-out: MAO-B activity (% inhibition).

We go through seven molecules from patent publication US20060194971A1, “Anethole dithiolethione and other dithiolethiones for the treatment of conditions associated with dysfunction of monoamine neruotransmission” (priority 2005, published 2006).

Structures are written as SMILES. pIC50: −log10 of the molar value. Like-named read-outs stand apart in the source and are kept apart here.

`COc1ccc(-c2cc(=S)ss2)cc1` [ADT, 5-(p-methoxyphenyl)-3H-1,2-dithiole-3-thione]: in data set [1] (following selective and complete blockade of MAO-A activity by clorgyline), the “concentration-effect relationship for MAO-B compared to inhibition of total MAO activity” value is “identical concentration-effect relationships”. Besides, in data set [1] (setting [4]), the inhibition at 0.03 µM is 0%, the inhibition at 0.1 µM was found to be 15%, the inhibition at 0.3 µM is 40% and the inhibition at 1 µM came out at 73%. In addition, in data set [1] (setting [4]), the inhibition at 3 µM came out at 89%, the inhibition at 10 µM came to 96% and the inhibition at 30 µM was 100%. For the same molecule, the “Σ MAO activity (% inhibition)” value in data set [2] (0.1 μM) was determined as 14%. Moreover, in data set [2] (0.3 μM), the “Σ MAO activity (% inhibition)” value is on record as 35%. The “Σ MAO activity (% inhibition)” value in data set [2] (1 μM) is listed as 60%. In addition, the “Σ MAO activity (% inhibition)” value in data set [2] (3 μM) was 70%. Also, the “Σ MAO activity (% inhibition)” value in data set [2] (10 μM) was 81%. Besides, the “Σ MAO activity (% inhibition)” value in data set [2] (30 μM) is listed as 85%. Moreover, in data set [2] (at a concentration of 30 μM), the “maximal effect on total MAO activity (inhibition)” value is on record as around 80%. In data set [2] (read-out: apparent IC50, inhibition of total astroglial MAO activity, substrate tyramine, astroglial cell extracts), the negative-log IC50 (pIC50) is around 6.30. Also, the “effect on MAO-A activity” value in data set [3] is listed as “no statistically significant effect”.
In turn, `CCCCCCOc1ccc(-c2cssc2=S)cc1` [Compound A1] came in with a melting point of 121 °C. In the data set with MAO-B, the “MAO-B %-inhibition at 10^−5 M” value was 100%.
Take `S=c1ssc(N2CCN(c3cccc4c3OCCO4)CC2)c1-c1ccccc1` [Compound B1]: the “MAO-B %-inhibition at 10^−5 M” value in the data set on MAO-B is 65%.
As to `Cc1ccc(-c2c(N3CCN(c4ccccc4)CC3)ssc2=S)cc1` [Compound B3], the “MAO-B %-inhibition at 10^−5 M” value in the data set with MAO-B is 54%.
In the case of `CCN(CC)c1ccc(C=Cc2cc(=S)ss2)cc1` [Compound C1], in the data set on MAO-B, the “MAO-B %-inhibition at 10^−5 M” value was 52%.
On the same count and under the same terms, the value for `S=c1cc(C=Cc2ccc3ccccc3n2)ss1` [Compound C2] was 56%.
Consider `S=c1ccss1` [Compound D3T, 3H-1,2-dithiole-3-thione], for which the “maximally effective concentration, blockade of MAO-B activity” value in data set [1] (in the presence of clorgyline) was determined as 300 µM. In addition, in data set [1] (setting [4]), the inhibition at 1 µM was 2%, the inhibition at 3 µM was 6%, the inhibition at 10 µM worked out at 24% and the inhibition at 30 µM turned out to be 59%. Also, in data set [1] (setting [4]), the inhibition at 100 µM was 82%, the inhibition at 300 µM turned out to be 92% and the inhibition at 1000 µM turned out to be 91%. The negative-log IC50 (pIC50) in data set [1] (read-out: apparent IC50, blockade of MAO-B activity) is around 4.70.

For orientation: inhibition means the share of the control response that was lost under treatment. Broadly, the pIC50 is the IC50 on a negative log10 scale, so that one unit is a factor of ten. Usually melting point stands for the temperature, or range, at which the solid turns liquid.
